Where a name gives a salt, the structure may show the parent alone.
Columns and labels:
[1] = test system: db/db-mice; test: HbA1c levels in db/db-mice after 4 weeks of once daily oral treatment (Micromat II Hemoglobin A1c Test); format: in vivo; details: female obese db/db-mice; Compound A 3 mg/kg orally, RIMONABANT Hydrochloride 10 mg/kg orally or combination of both, once daily for 4 weeks; vs vehicle; FIG. 1
Method: (§1) Aim of the study was to investigate the influence of a combination of RIMONABANT Hydrochloride and Compound A on HbA1c and glucose tolerance.
(§2) Female obese db/db-mice (BKS.Cg/BomTac-m+/+Lepr^db), supplied by Taconic Europe (Denmark) were used at the age of 10-11 weeks. Animals were kept under controlled conditions (22° C., 12 h light/12 h dark cycle) and received standard laboratory chow and water ad libitum. For each group a number of 15 animals were used.
(§3) Animals were treated with Compound A [3 mg/kg orally, suspended in methocel (hypromellose, 4% aequous solution)], RIMONABANT Hydrochloride [10 mg/kg orally, suspended in methocel (hypromellose, 4% aequous solution), Sequoia Research Products, Pangbourne, UK] or a combination of both once daily for 4 weeks. Vehicle treated animals served as control. HbA1c levels were analyzed using the Micromat II Hemoglobin A1c Test (Bio-Rad Laboratories GmbH, 80939 München, Germany). An intraperitoneal glucose tolerance test was performed in 24 h fasted animals. A glucose bolus (1 g/kg body weight) was administered intraperitoneally. Blood glucose was monitored for the following time points: t=−120 min, 0 min (before glucose administration), 30 min, 60 min, 90 min, 120 min (after glucose administration). Blood was taken by tail-tip-bleeding (5 μl) and was determined from hemolysate using an analyzing machine (Biosen S_line, EKF Diagnostic, Germany). […]

[2] = test system: db/db-mice; test: Intraperitoneal glucose tolerance test in 24 h fasted db/db-mice after 4 weeks of treatment; format: in vivo; details: female obese db/db-mice, glucose bolus 1 g/kg i.p., Compound A 3 mg/kg orally, RIMONABANT Hydrochloride 10 mg/kg orally or combination of both, once daily for 4 weeks, FIG. 2
Method: as §1, §2, §3

Structure (SMILES) | effect on HbA1c [1] | effect on glucose tolerance [2]
CCOc1cc2c(cc1OC)C(c1ccc(OC)nc1OC)=N[C@@H]1CC[C@@H](O)C[C@H]21 [Compound A, (2R,4aR,10bR)-6-(2,6-Dimethoxy-pyridin-3-yl)-9-ethoxy-8-methoxy-1,2,3,4,4a,10b-hexahydrophenanthridin-2-ol] | no effect | no effect
Cc1c(C(=O)NN2CCCCC2)nn(-c2ccc(Cl)cc2Cl)c1-c1ccc(Cl)cc1 [RIMONABANT Hydrochloride, 5-(4-chlorophenyl)-1-(2,4-dichlorophenyl)-4-methyl-N-piperidin-1-yl-1H-pyrazole-3-carboxamide] | no effect | no effect
